Read-outs that look alike come from different tables or passages of the source.
Key:
JAK1 = molecular target: T1, JAK1 (Homo sapiens, UniProt P23458); assay: Cell-free JAK1 immune complex kinase assay; type: biochemical; conditions: for effect on enzymatic activity of JAK1: at concentrations as high as 350 μM
T1 construct: made in house; host or cells: Sf21 insect cells (baculovirus)
Experimental: Immunoprecipitations, immune-complex protein kinase assays, and immunoblotting using the ECL chemiluminescence detection system (Amersham Life Sciences) were conducted as described previously (Vassilev, A., et al. J. Biol. Chem. 1998, in press; Goodman, P. A., et al. J. Biol. Chem. 1998, 273, 17742; Mahajan, S., et al. Mol. Cell. Biol. 1995, 15, 5304; Uckun, F. M., et al. Science 1996, 22, 1096).

MDA-MB-231 cells = assay: In vitro clonogenic assay, MDA-MB-231; type: cell-based, human; conditions: 24 hour treatment; for inhibition at 0.1 µM / inhibition at 10 µM / inhibition at 100 µM: Homo sapiens
Experimental: In order to determine the cytotoxic activity of LFM and its analogs against breast cancer cells, cells in alpha-MEM supplemented with 10% (v/v) fetal calf serum were treated with various concentrations of the compounds for 24 hours at 37° C., washed twice in alpha-MEM, and then used in either MTT assays or in vitro invasion assays, as described hereinafter.
After treatment with LFM analogs, cells were resuspended in clonogenic medium consisting of alpha-MEM supplemented with 0.9% methylcellulose, 30% fetal bovine serum, and 50 μM 2-mercaptoethanol. Cells were plated in duplicate Petri dishes at 100,000 cells/mL/dish and cultured in a humidified 5% CO2 incubator for 7 days. Cancer cell colonies were enumerated on a grid using an inverted phase microscope of high optical resolution (Uckun F. M., et al. Clin. Cancer Res. 1998, 4, 901-912; and Kuo). Results were expressed as % inhibition of clonogenic cells at a particular concentration of the test agent using the formula: % Inhibition=(1-Mean # of colonies [Test]/Mean # of colonies [Control])×100. Furthermore, the dose survival curves were constructed using the percent control survival (=Mean # of colonies[Test]/Mean # of colonies [Control]×100) results for each drug concentration as the data points and the IC50 values were calculated. The IC50 values were determined using an Prism Version II Inplot program (Graphpad Software, Inc., San Diego, Calif.).

[1] = test system: MDA-MB-231 human breast cancer cells; assay: Transfilter cell invasion assay (Matrigel-coated Boyden chambers); type: cell-based
Experimental: The chamber filters were coated with 50 μg/ml of Matrigel matrix, incubated overnight at room temperature under a laminar flow hood and stored at 4° C.
On the day of the experiment, the coated inserts were rehydrated with 0.5 ml serum-free DMEM containing 0.1% bovine serum albumin for 1-2 hours. To study the effects of LFM and LFM-A12 on invasiveness of MDA-MB-231 cells, exponentially growing cells were incubated with each compound at various concentrations ranging from 12.5 RM to 100 μM in 0.1% DMSO overnight. The cells were trypsinized, washed twice with serum-free DMEM containing BSA, counted and resuspended at 1×10^5 cells/ml.
A 0.5 ml cell suspension containing 5×10^4 cells in a serum-free DMEM containing LFM, LFM-A12, or vehicle was added to the Matrigel-coated and rehydrated filter inserts. Next, 750 μl of NIH fibroblast conditioned medium was placed as a chemoattractant in 24-well plates and the inserts were placed in wells and incubated at 37° C. for 48 hours. […] The invasive cells that migrated to the lower side of the filter were fixed, stained with Hema-3 solutions and counted under microscope. No cells were detected at the bottom of the Boyden chambers. Therefore, the number of cells on the lower side of the filters accounted for all cells that had migrated through the filter. Five (5) to ten (10) random fields per filter were counted to determine the mean (±SE) values for the invasive fraction. The invasive fractions of cells treated with LFM or LFM-A12 were compared to those of vehicle (0.1% DMSO in PBS) treated control cells and the percent inhibition of invasiveness was determined using the following formula: % Inhibition=100×(1-Invasive Fraction of Drug-Treated Cells/Invasive Fraction of Control Cells).

[2] = test system: MDA-MB-231 breast cancer cells; assay: Flow cytometric apoptosis assay (MC540 binding / PI permeability); type: cell-based, human; conditions: for Apoptotic fraction [AF] with MC540+/PI+ advanced stage apoptosis: 24 hours
Text: Loose packing of membrane phospholipid head groups and cell shrinkage precede DNA fragmentation in apoptotic cells, thereby providing MC540 binding as an early marker for apoptosis (Uckun F. M., et al. Clin. Cancer Res. 1998, 4, 901-912; and Kuo, E. A. J. Med. Chem. 1996, 39, 4608-4621). Plasma membrane permeability to propidium iodide (PI, Sigma) develops at a later stage of apoptosis (Uckun F. M., et al. Clin. Cancer Res. 1998, 4, 901-912; and Kuo, E. A. J. Med. Chem. 1996, 39, 4608-4621). MC540 binding and PI permeability were simultaneously measured in breast cancer cells 24 hours after exposure to leflunomide analogs, as described (Uckun F. M., et al. Clin. Cancer Res. 1998, 4, 901-912. Stock solutions of MC540 and PI, each at 1 mg/mL, were passed through a 0.22 μm filter and stored at 4° C. in the dark. Shortly before analysis, suspensions containing 1×10^6 cells were suspended in 5 μg/mL MC540 and 10 μg/mL PI and kept in the dark at 4° C. Whole cells were analyzed with a FACS Calibur or FACS Vantage flow cytometer (Becton Dickinson, San Jose, Calif.). All analyses were done using 488 nm excitation from an argon laser. MC540 and PI emissions were split with a 600 nm short pass dichroic mirror and a 575 nm band pass filter was placed in front of one photomultiplier tube to measure MC540 emission and a 635 nm band pass filter was used for PI emission.
Loose packing of membrane phospholipid head groups and cell shrinkage precede DNA fragmentation in apoptotic cells, thereby providing MC540 binding as an early marker for apoptosis (Uckun, F. M. et al., Science, 1995, 267, 886-891). MC540 binding and propidium iodide (PI) permeability of MDA-MB-231 breast cancer cells were simultaneously measured before and after a 24 hour treatment with 100 μM or 500 μM LFM-A12. Whole cells were analyzed with a FACStar Plus flow cytometer (Becton Dickinson, San Jose, Calif.).

[3] = MDA-MB-231, migration for 48 hours, mean of two experiments, read-out: IC50 for inhibition of invasion through Matrigel matrix

T1 sequence (P23458 whole entry, species assumed): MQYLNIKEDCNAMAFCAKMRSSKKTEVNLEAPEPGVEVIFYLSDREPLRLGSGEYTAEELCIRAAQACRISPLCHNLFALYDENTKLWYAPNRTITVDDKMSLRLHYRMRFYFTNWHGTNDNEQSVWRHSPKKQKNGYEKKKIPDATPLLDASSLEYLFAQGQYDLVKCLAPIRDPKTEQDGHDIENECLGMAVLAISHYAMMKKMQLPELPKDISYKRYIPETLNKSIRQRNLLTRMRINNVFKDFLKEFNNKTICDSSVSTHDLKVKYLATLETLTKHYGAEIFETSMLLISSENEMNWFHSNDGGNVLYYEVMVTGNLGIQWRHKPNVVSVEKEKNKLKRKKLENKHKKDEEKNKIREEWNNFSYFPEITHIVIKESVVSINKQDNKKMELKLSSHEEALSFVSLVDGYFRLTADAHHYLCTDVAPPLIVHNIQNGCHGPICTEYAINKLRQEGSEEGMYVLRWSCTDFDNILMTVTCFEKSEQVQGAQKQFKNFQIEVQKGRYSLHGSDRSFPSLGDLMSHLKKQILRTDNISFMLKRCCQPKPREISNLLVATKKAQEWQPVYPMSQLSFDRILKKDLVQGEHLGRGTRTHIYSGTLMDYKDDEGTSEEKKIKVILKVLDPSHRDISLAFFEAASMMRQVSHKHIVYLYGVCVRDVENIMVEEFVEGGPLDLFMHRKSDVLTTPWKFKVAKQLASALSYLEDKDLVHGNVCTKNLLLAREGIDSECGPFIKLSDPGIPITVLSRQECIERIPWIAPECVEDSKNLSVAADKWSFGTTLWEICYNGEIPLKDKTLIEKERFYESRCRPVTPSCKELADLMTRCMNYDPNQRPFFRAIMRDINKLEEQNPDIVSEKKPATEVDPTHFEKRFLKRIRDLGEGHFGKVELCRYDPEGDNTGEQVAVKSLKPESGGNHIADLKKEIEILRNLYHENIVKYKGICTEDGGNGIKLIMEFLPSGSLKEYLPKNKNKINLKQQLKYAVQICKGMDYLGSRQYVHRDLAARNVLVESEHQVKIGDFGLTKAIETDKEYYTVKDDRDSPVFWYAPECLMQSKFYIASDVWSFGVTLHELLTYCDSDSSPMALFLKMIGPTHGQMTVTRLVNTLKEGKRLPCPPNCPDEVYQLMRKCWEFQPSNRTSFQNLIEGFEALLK

SMILES | effect on enzymatic activity of JAK1 (JAK1) | inhibition at 0.1 µM (MDA-MB-231 cells; MDA-MB-231, 0.1 μM) | inhibition at 10 µM (MDA-MB-231 cells; MDA-MB-231, 10 μM) | inhibition at 100 µM (MDA-MB-231 cells; MDA-MB-231, 100 μM) | Tumor Cell Colonies/10^5 Cells (MDA-MB-231 cells; MDA-MB-231, 0.1 μM) | Tumor Cell Colonies/10^5 Cells (MDA-MB-231 cells; MDA-MB-231, 10 μM) | Tumor Cell Colonies/10^5 Cells (MDA-MB-231 cells; MDA-MB-231, 100 μM) | IC50 [1, 3] | IC50 ([1]; MDA-MB-231, read-out: IC50 for inhibition of invasion through Matrigel matrix) | induction of apoptosis ([2]; MDA-MB-231, 24 hours) | IC50 (JAK1; JAK1, cell-free, read-out: Inhibition IC50) | % Inhibition of clonogenic cells (MDA-MB-231 cells; MDA-MB-231, 100 μM, 100 µM) | Apoptotic fraction [AF] with MC540+/PI+ advanced stage apoptosis ([2]; MDA-MB-231, 100 μM) | Apoptotic fraction [AF] with MC540+/PI+ advanced stage apoptosis ([2]; MDA-MB-231, 500 μM)
CC(O)=C(C#N)C(=O)Nc1ccc(C(F)(F)F)cc1 [LFM, α-Cyano-β-hydroxy-β-methyl-N-[4-(trifluoromethyl)phenyl]-propenamide, reference compound] | did not affect the enzymatic activity | 16.2% | 44.2% | 74.2% | 964 | 642 | 297 | 97 µM | 97 µM | albeit to a lesser extent, also induced apoptosis |  |  |  | 
C/C(O)=C(\C#N)C(=O)Nc1ccc(OC(F)(F)F)cc1 [LFM-A12, α-Cyano-β-hydroxy-β-methyl-N-[4-(trifluoromethoxy)phenyl]-propenamide] | did not affect the enzymatic activity | 42% | 55.2% | > 99% | 667 | 515 | 0 | 28.4 µM |  |  | > 175 µM | >99% | 54% | 85%

From patent US6864286B2, “Inhibitors of the EGF-receptor tyrosine kinase and methods for their use” (Parker Hughes Institute, priority 1998, dated 2005)
